Molecules are shown by their SMILES.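 Method: 48-hour compound exposure of cells in 96-well plates, five concentrations, linear interpolation of endpoints. At the GI50, growth is halved.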 Active and inactive are the calls of the source. Rule as the data show it: active = GI50 up to about 1.1 µM and inactive = higher. Residues, ends and D or L forms follow the SMILES beside them. *: point of attachment. Cbz = O=C(OCc1ccccc1)*

Holding throughout (experiment): inhibition of tumour cell growth, NCI panel, 48 h
For assay [1], the system named is MDA-MB-231.
The subject of assay [2] is HOP-92.
The subject of assay [3] is NCI-H226.
Assay [4] has as its system SK-OV-3.
Assay [5] deals with SW-620.
The subject of assay [6] is EKVX.
For assay [7], the system named is UACC-62.
For assay [8], the system named is SK-MEL-2.
In assay [9] the test system is K562.
Assay [10] deals with M14.
Assay [11] deals with IGROV-1.
Assay [12] relates to CAKI-1.
Assay [13] deals with DU-145.
In assay [14] the test system is SF-539.
Assay [15] concerns SNB-19.
Assay [16] has as its system TK-10.
The test system of assay [17] is SR.
In assay [18] the test system is HT-29.
For assay [19], the system named is ACHN.
The subject of assay [20] is OVCAR-4.

`Cn1c(=O)[nH]c2[nH]c3ccccc3c2c1=O`: the GI50 in assay [1], in [2], in [3], in [4], in assay [5] and in assay [6] was > 100 µM (inactive) throughout. In addition, the GI50 in [7], in assay [8], in [9], in [10], in assay [11] and in assay [12] was > 100 µM (inactive) in each case. The GI50 in assay [13], in assay [14], in assay [15], in assay [16], in assay [17] and in assay [18] was > 100 µM (inactive) throughout. For the same compound, the GI50 in assay [19] was > 100 µM (inactive).
With `CC(NC(=O)C(NC(=O)OCc1ccccc1)C(C)C)C(=O)NCC(=O)O` (stereo not drawn) (Cbz-Val-Ala-Gly-OH; configuration not given here), the GI50 in assay [1], in assay [2], in assay [3], in assay [4], in assay [5] and in assay [6] was > 100 µM (inactive) throughout. Further, the GI50 in assay [7], in assay [8], in [9], in [10], in assay [11] and in assay [12] was > 100 µM (inactive) throughout. Moreover, the GI50 in [13], in assay [14], in assay [15], in assay [16], in assay [17] and in [18] was > 100 µM (inactive) throughout. For the same compound, in assay [19], the GI50 is > 100 µM (inactive).
Turning to `CC(C)CC(C#CCCOC(=O)c1ccccc1)OC(=O)c1ccccc1` (stereo unspecified), the GI50 in assay [1], in assay [2], in [3], in [4], in [5] and in assay [6] was > 10 µM (inactive) throughout. For the same compound, the GI50 in assay [7], in assay [8], in [9], in assay [10], in assay [11] and in assay [13] was > 10 µM (inactive) throughout. Also, the GI50 in assay [14], in assay [15], in assay [16], in assay [17], in [18] and in assay [19] was > 10 µM (inactive) throughout.
As for `N=C(N)c1ccc(/C=C/c2ccc(C(=N)N)cc2)cc1`, the GI50 in [20] is > 100 µM (inactive); in assay [1], > 100 µM (inactive); in assay [2], > 100 µM (inactive); in [3] it was > 100 µM (inactive); in [5], 96.8 µM (inactive); in assay [6], 46.3 µM (inactive). For the same compound, the GI50 in assay [7] was 97.9 µM (inactive); in [8] it was 27.1 µM (inactive); in assay [9] it was 49.8 µM (inactive); in [10] it was > 100 µM (inactive); in [11], 70.8 µM (inactive); in assay [12], 94.6 µM (inactive). Moreover, the GI50 in [13] was > 100 µM (inactive); in assay [15], > 100 µM (inactive); in [16], 24.5 µM (inactive); in assay [17], > 100 µM (inactive); in assay [18] it was 93.1 µM (inactive); in [19] it was > 100 µM (inactive).
Turning to `COc1c(C)c(OC)c2c(c1O)[C@@H]1[C@@H]3Cc4c(OC)c(C)c(OC)c(O)c4[C@H](CNC(=O)c4ccc5ccccc5n4)N3[C@@H](C#N)[C@H](C2)N1C`, the GI50 in assay [20] is 0.00217 µM (active); in assay [1], 0.00159 µM (active); in assay [2], 0.000363 µM (active); in [3], 0.00143 µM (active); in [5], 0.00033 µM (active); in assay [6] it was 0.000232 µM (active). For the same compound, the GI50 in assay [7] was 0.000411 µM (active); in assay [8] it was 0.000296 µM (active); in [9], 0.000537 µM (active); in [10] it was 0.000659 µM (active); in assay [11], 0.000147 µM (active); in [12], 0.00401 µM (active). In addition, the GI50 in assay [13] was 0.00206 µM (active); in [14], 0.0017 µM (active); in assay [15], 0.00569 µM (active); in assay [16] it was 0.000444 µM (active); in assay [17], 0.000105 µM (active); in [18] it was 0.000893 µM (active). In addition, the GI50 in assay [19] is 0.00199 µM (active).
Consider `COc1cccc(-c2ccc3c4c2O[C@H]2c5[nH]c6ccccc6c5C[C@@]5(O)[C@@H](C3)N(CC3CC3)CC[C@]425)c1`, for which the GI50 is 1.71 µM (inactive) in [20]; 0.14 µM (active) in [1]; 1.37 µM (inactive) in assay [2]; 6.84 µM (inactive) in assay [3]; 1.93 µM (inactive) in assay [5]; 3.86 µM (inactive) in [6]. For the same compound, the GI50 in assay [7] is 1.67 µM (inactive); in assay [8] it was 1.69 µM (inactive); in assay [9], 1.9 µM (inactive); in [10], 1.81 µM (inactive); in assay [11], 1.64 µM (inactive); in assay [12] it was 2.1 µM (inactive). Also, the GI50 in assay [13] was 2.54 µM (inactive); in [14], 1.78 µM (inactive); in assay [15] it was 2.05 µM (inactive); in assay [16] it was 1.72 µM (inactive); in [17] it was 1.76 µM (inactive); in assay [18], 1.7 µM (inactive). Also, in assay [19], the GI50 was 1.63 µM (inactive).
With `CCCCCCCCCCCC/C=C\CC[C@@H](O)[C@H](O)CC[C@H](O)[C@@H]1CC[C@@H](CCCCCCCC2=C[C@H](C)OC2=O)O1` [GIGANTRIONENIN], the GI50 in assay [20] was 10.8 µM (inactive); in assay [1], 7.18 µM (inactive); in [2] it was 2.47 µM (inactive); in assay [3] it was 1.48 µM (inactive); in assay [5], 3.35 µM (inactive); in [6] it was 2.97 µM (inactive). Besides, the GI50 in assay [7] was 1.35 µM (inactive); in assay [8] it was 2.24 µM (inactive); in assay [9], 1.15 µM (inactive); in assay [10] it was 13.9 µM (inactive); in assay [11], 3.18 µM (inactive); in assay [12] it was 15.8 µM (inactive). Also, the GI50 in assay [13] was 3.66 µM (inactive); in assay [14], > 10 µM (inactive); in assay [15] it was 1.83 µM (inactive); in assay [16], 2.17 µM (inactive); in assay [17], 1.41 µM (inactive); in [18], 2.31 µM (inactive). For the same compound, the GI50 in assay [19] is 1.17 µM (inactive).
Consider `COC(=O)c1cc(C)n2c1CS[C@@H]2c1ccccc1`, for which the GI50 is 36.8 µM (inactive) in assay [20]; 57.4 µM (inactive) in assay [1]; 22.4 µM (inactive) in assay [2]; 28.8 µM (inactive) in [3]; 46 µM (inactive) in assay [4]; 44.6 µM (inactive) in assay [5]. In addition, the GI50 in assay [6] is 32.2 µM (inactive); in assay [8], 28.4 µM (inactive); in assay [9] it was 14.1 µM (inactive); in assay [10], 24.9 µM (inactive); in assay [11] it was 44.4 µM (inactive); in [12], 38.7 µM (inactive). Further, the GI50 in [13] is 82 µM (inactive); in assay [15], 66.1 µM (inactive); in [16] it was 66.4 µM (inactive); in assay [17], 17.3 µM (inactive); in assay [18], 31.2 µM (inactive); in assay [19], 58.7 µM (inactive).
For `C/C(Cl)=N/OC(=O)Nc1ccc(S(N)(=O)=O)c(C)c1`, the GI50 in [20] is 15.5 µM (inactive); in [1], 8.26 µM (inactive); in [2], 2 µM (inactive); in [3], 23.6 µM (inactive); in [4], > 43.5 µM (inactive); in assay [5] it was 2.38 µM (inactive). In addition, the GI50 is 5.75 µM (inactive) in assay [6]; 15.7 µM (inactive) in assay [7]; 18.6 µM (inactive) in assay [8]; 1.34 µM (inactive) in [9]; 9.14 µM (inactive) in assay [10]; 15.4 µM (inactive) in assay [11]. The GI50 was 1.83 µM (inactive) in [12]; 16.6 µM (inactive) in assay [13]; 18.1 µM (inactive) in assay [15]; 5.58 µM (inactive) in assay [16]; 1.86 µM (inactive) in assay [17]; 17.8 µM (inactive) in [18]. In assay [19], the GI50 was 2.15 µM (inactive).
`O=C(c1ccccc1)N1CCC(Nc2cccnc2)O1` (stereo unspecified): the GI50 in assay [1], in assay [2], in assay [3], in assay [4], in assay [5] and in assay [6] was > 100 µM (inactive) throughout. In addition, the GI50 in [7], in assay [8], in assay [9], in assay [10], in assay [11] and in [13] was > 100 µM (inactive) each time. The GI50 in assay [14], in [15], in assay [16], in assay [17], in assay [18] and in assay [19] was > 100 µM (inactive) each time.

Values taken from ChEMBL document CHEMBL1201862, “PubChem BioAssay data set” (2004).
